Assay results reported in patent US10731197B2, “Methods for detecting or quantifying CTP and CTP synthase activity” (Assistance Publique-Hopitaux de Paris, priority 2015, dated 2020).

System: CTP synthase
Assay: Determination of CTP synthase Michaelis-Menten constants Km and Vmax (CTP formation kinetics from UTP, LC-MS/MS)
Type: biochemical, human
Details: initial UTP 0 to 6 mM
Description: The cell extracts may be obtained from cultured cells (primary cultures of cells, blasts or cell lines), from blood derived cells. Particularly, mononuclear cells (PBMCs, peripheral blood mononuclear cells) have been isolated from peripheral blood. The cells were washed with phosphate buffer 0.1 M KH2PO4, pH=7.4, and then collected in HEPES buffer 70 mM, pH=8.0, containing 10 mM NaF and protease inhibitors leupeptin and pepstatin to the concentration of 10 μg/mL. The cells were immediately placed in a bath of ethanol and dry ice, and then placed for at least 1 hour at −80° C. The cells were then centrifuged for 30 minutes at 10 000 g at 4° C. The supernatant, containing the cytosolic fraction, was collected and contained proteins were dosed. One to 10 µg of proteins, prepared as described above, were used for measuring CTP synthase activity in a reaction mixture containing 4 μM internal standard, 1.25 mM UTP, 1.25 mM ATP, 0.31 mM GTP, 12.5 mM glutamine, 1.25 mM phosphoenolpyruvate, 0.62 mM EDTA and 10 mM NaF in 15 μL complete HEPES buffer 70 mM, pH=8.0. Enzymatic reaction was carried out at 37° C. for 90 minutes and then, the reaction tubes were cooled on ice and the enzymatic reaction was stopped by adding 15 μL HCLO4 1 M. The reaction tubes were vortexed and centrifuged for 5 minutes at 12 000 g at 4° C. The supernatants were diluted with the aqueous mobile phase A and transferred to a 384-well plate. Analyses were performed using a Waters chromatographic UPLC system (Acquity™ UPLC) connected to a Waters TQD quadrupole mass spectrometer, operated in the electrospray positive ion mode with selected reaction monitoring (SRM). […] Waters HSS T3, 1.8 μm particle size, 2.1×100 mm column, which was maintained at 30° C. throughout the analysis. The flow rate was 0.5 mL/min. Mobile phase A was 5 mM dibutylamine acetate in water and mobile phase B, 5 mM dibutylamine acetate in acetonitrile. Three distinct mobile-phase gradients were used (see Tables 6a to 6c below). Then the enzymatic constants of Michaelis-Menten, Km and Vmax were determined by performing CTP formation kinetics during 90 minutes by using initial concentrations of UTP ranging from 0 to 6 mM. The values obtained for Vmax and Km were of the same order of magnitude as those previously published with radio-isotopic methods (FIG. 4).

- Vmax (PBMCs activated, 90 minutes): 0.379 ± 0.091 nmol/min
- Vmax (activated PBMC protein extracts, 90 min): 0.3789 ± 0.091 nmol/min
- Vmax (resting PBMC protein extracts, 90 min): 0.083 ± 0.02 nmol/min
- Vmax (resting cells, 90 minutes): 0.083 ± 0.02 nmol/min
Structure (SMILES): O=c1ccn([C@@H]2O[C@H](COP(=O)(O)OP(=O)(O)OP(=O)(O)O)[C@@H](O)[C@H]2O)c(=O)[nH]1 [UTP, uridine triphosphate]
